From ChEMBL document CHEMBL1201862, “PubChem BioAssay data set” (2004)
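The compound was tested at five concentrations on cells cultured in 96-well plates, with a 48-hour exposure period. GI50 = concentration required for 50% inhibition of growth.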 Calls of active or inactive are those of the source. Cut-off read from the data, not from the text of the source: active = GI50 up to about 1.1 µM and inactive = higher.

Key:
Experiment in all cases: DTP human tumour cell line panel, 48 h
NCI/ADR-RES = tested on: NCI/ADR-RES
MOLT-4 = tested on: MOLT-4
NCI-H226 = tested on: NCI-H226
IGROV-1 = tested on: IGROV-1
SN12C = tested on: SN12C
UACC-62 = tested on: UACC-62
SK-MEL-5 = tested on: SK-MEL-5
CAKI-1 = tested on: CAKI-1
A498 = tested on: A498
HT-29 = tested on: HT-29
K562 = tested on: K562
KM12 = tested on: KM12
SF-295 = tested on: SF-295
NCI-H23 = tested on: NCI-H23
UACC-257 = tested on: UACC-257
EKVX = tested on: EKVX
U-251 = tested on: U-251
SNB-19 = tested on: SNB-19
TK-10 = tested on: TK-10
COLO 205 = tested on: COLO 205
MDA-MB-231 = tested on: MDA-MB-231
HCT-15 = tested on: HCT-15
OVCAR-8 = tested on: OVCAR-8
BT-549 = tested on: BT-549
ACHN = tested on: ACHN
UO-31 = tested on: UO-31
LOX IMVI = tested on: LOX IMVI
A549 = tested on: A549
786-0 = tested on: 786-0
NCI-H522 = tested on: NCI-H522
HOP-92 = tested on: HOP-92
MCF7 = tested on: MCF7
PC-3 = tested on: PC-3
MDA-MB-435 = tested on: MDA-MB-435
HL-60 = tested on: HL-60
Hs-578T = tested on: Hs-578T
SNB-75 = tested on: SNB-75
HOP-62 = tested on: HOP-62
SK-MEL-28 = tested on: SK-MEL-28
DU-145 = tested on: DU-145
RPMI-8226 = tested on: RPMI-8226
HCT-116 = tested on: HCT-116
Malme-3M = tested on: Malme-3M
NCI-H460 = tested on: NCI-H460
OVCAR-4 = tested on: OVCAR-4
SK-MEL-2 = tested on: SK-MEL-2
SK-OV-3 = tested on: SK-OV-3
SF-268 = tested on: SF-268
MDA-N = tested on: MDA-N
HCC 2998 = tested on: HCC 2998
SW-620 = tested on: SW-620
T47D = tested on: T47D
RXF 393 = tested on: RXF 393
CCRF-CEM = tested on: CCRF-CEM
SF-539 = tested on: SF-539
M14 = tested on: M14
OVCAR-5 = tested on: OVCAR-5
OVCAR-3 = tested on: OVCAR-3
SR = tested on: SR

O=S1(=O)OCCOS(=O)(=O)C1C1c2ccccc2-c2ccccc21
GI50 (NCI/ADR-RES): 25.7 µM (inactive)
GI50 (MOLT-4): 15.6 µM (inactive)
GI50 (NCI-H226): 26 µM (inactive)
GI50 (IGROV-1): 23.5 µM (inactive)
GI50 (SN12C): 48.6 µM (inactive)
GI50 (UACC-62): 21.7 µM (inactive)
GI50 (SK-MEL-5): 28.7 µM (inactive)
GI50 (CAKI-1): 29.7 µM (inactive)
GI50 (A498): > 100 µM (inactive)
GI50 (HT-29): 34 µM (inactive)
GI50 (K562): 31.3 µM (inactive)
GI50 (KM12): 41.5 µM (inactive)
GI50 (SF-295): 29 µM (inactive)
GI50 (NCI-H23): 28.7 µM (inactive)
GI50 (UACC-257): 36.4 µM (inactive)
GI50 (EKVX): 42.8 µM (inactive)
GI50 (U-251): 20.7 µM (inactive)
GI50 (SNB-19): 38.5 µM (inactive)
GI50 (TK-10): > 100 µM (inactive)
GI50 (COLO 205): 70.5 µM (inactive)
GI50 (MDA-MB-231): > 100 µM (inactive)
GI50 (HCT-15): 35.4 µM
GI50 (OVCAR-8): 50.8 µM (inactive)
GI50 (BT-549): 48.8 µM (inactive)
GI50 (ACHN): 27.2 µM (inactive)
GI50 (UO-31): 28.7 µM (inactive)
GI50 (LOX IMVI): 14.8 µM (inactive)
GI50 (A549): 40.8 µM (inactive)
GI50 (786-0): 20 µM (inactive)
GI50 (NCI-H522): 20.7 µM (inactive)
GI50 (HOP-92): > 100 µM (inactive)
GI50 (MCF7): 39 µM (inactive)
GI50 (PC-3): 90.4 µM (inactive)
GI50 (MDA-MB-435): 33.6 µM (inactive)
GI50 (HL-60): 15.5 µM (inactive)
GI50 (Hs-578T): 44.9 µM (inactive)
GI50 (SNB-75): 2.41 µM (inactive)
GI50 (HOP-62): 29.3 µM (inactive)
GI50 (SK-MEL-28): 67.6 µM (inactive)
GI50 (DU-145): 37.3 µM (inactive)
GI50 (RPMI-8226): 28.6 µM (inactive)
GI50 (HCT-116): 28.6 µM (inactive)
GI50 (Malme-3M): 56.2 µM (inactive)
GI50 (NCI-H460): 11.4 µM (inactive)
GI50 (OVCAR-4): 23 µM (inactive)
GI50 (SK-MEL-2): 70.3 µM (inactive)
GI50 (SK-OV-3): 40.3 µM (inactive)
GI50 (SF-268): 28.9 µM (inactive)
GI50 (MDA-N): 36.7 µM (inactive)
GI50 (HCC 2998): 29 µM (inactive)
GI50 (SW-620): 26.9 µM (inactive)
GI50 (T47D): 93.8 µM (inactive)
GI50 (RXF 393): 50.9 µM (inactive)
GI50 (CCRF-CEM): 16.4 µM (inactive)
GI50 (SF-539): 22.8 µM (inactive)
GI50 (M14): 38.3 µM (inactive)
GI50 (OVCAR-5): 72.3 µM (inactive)
GI50 (OVCAR-3): 47 µM (inactive)

O=C(N/C(=C\c1ccccc1)C1Nc2ccccc2C(=O)O1)c1ccccc1 (stereo not drawn)
GI50 (NCI/ADR-RES): 25.9 µM (inactive)
GI50 (MOLT-4): 18.7 µM (inactive)
GI50 (NCI-H226): 25.6 µM (inactive)
GI50 (IGROV-1): 34.3 µM (inactive)
GI50 (SN12C): 28.2 µM (inactive)
GI50 (UACC-62): 27.5 µM (inactive)
GI50 (SK-MEL-5): 19.6 µM (inactive)
GI50 (CAKI-1): > 100 µM (inactive)
GI50 (A498): > 100 µM (inactive)
GI50 (HT-29): 32.7 µM (inactive)
GI50 (K562): 21.5 µM (inactive)
GI50 (KM12): 15.8 µM (inactive)
GI50 (SF-295): 37 µM (inactive)
GI50 (NCI-H23): 37.5 µM (inactive)
GI50 (UACC-257): 20.6 µM (inactive)
GI50 (EKVX): > 100 µM (inactive)
GI50 (U-251): 22.4 µM (inactive)
GI50 (SNB-19): 33.8 µM (inactive)
GI50 (TK-10): > 100 µM (inactive)
GI50 (COLO 205): 30.4 µM (inactive)
GI50 (MDA-MB-231): 41.3 µM (inactive)
GI50 (HCT-15): 31.8 µM
GI50 (OVCAR-8): 21.4 µM (inactive)
GI50 (BT-549): 21.5 µM (inactive)
GI50 (ACHN): 39.5 µM (inactive)
GI50 (UO-31): 19.6 µM (inactive)
GI50 (LOX IMVI): 18.2 µM (inactive)
GI50 (A549): 87.5 µM (inactive)
GI50 (786-0): 24.5 µM (inactive)
GI50 (NCI-H522): 16.3 µM (inactive)
GI50 (HOP-92): > 100 µM (inactive)
GI50 (MCF7): 45.8 µM (inactive)
GI50 (PC-3): > 100 µM (inactive)
GI50 (MDA-MB-435): 34.5 µM (inactive)
GI50 (HL-60): 12.4 µM (inactive)
GI50 (Hs-578T): 30.3 µM (inactive)
GI50 (SNB-75): 38.8 µM (inactive)
GI50 (HOP-62): 20.4 µM (inactive)
GI50 (SK-MEL-28): 23.7 µM (inactive)
GI50 (DU-145): 54.1 µM (inactive)
GI50 (RPMI-8226): 23.3 µM (inactive)
GI50 (HCT-116): 18.3 µM (inactive)
GI50 (Malme-3M): 16.6 µM (inactive)
GI50 (NCI-H460): 16.6 µM (inactive)
GI50 (OVCAR-4): 53.7 µM (inactive)
GI50 (SK-MEL-2): 22.5 µM (inactive)
GI50 (SK-OV-3): 55.6 µM (inactive)
GI50 (SF-268): 44 µM (inactive)
GI50 (MDA-N): 23.7 µM (inactive)
GI50 (HCC 2998): 19.8 µM (inactive)
GI50 (SW-620): 23.6 µM (inactive)
GI50 (T47D): > 100 µM (inactive)
GI50 (RXF 393): 23.6 µM (inactive)
GI50 (CCRF-CEM): 19.1 µM (inactive)
GI50 (SF-539): 20.2 µM (inactive)
GI50 (M14): 20.2 µM (inactive)
GI50 (OVCAR-5): > 100 µM (inactive)
GI50 (OVCAR-3): 27.3 µM (inactive)

C=C1C(=O)O[C@H]2C3OC3(C)CC/C=C(/C(=O)OC)[C@@H](OC(C)=O)[C@H](OC(=O)C3(C)OC3C)[C@H]12 (stereo partly drawn)
GI50 (NCI/ADR-RES): 3.73 µM (inactive)
GI50 (K562): 0.299 µM (active)
GI50 (SNB-19): > 7.5 µM (inactive)
GI50 (MDA-MB-231): 2.07 µM (inactive)
GI50 (BT-549): 1.04 µM (active)
GI50 (HOP-92): 1.61 µM (inactive)
GI50 (MCF7): 1.12 µM (active)
GI50 (PC-3): 2.17 µM (inactive)
GI50 (MDA-MB-435): 2.05 µM (inactive)
GI50 (HL-60): 0.196 µM (active)
GI50 (Hs-578T): 7.8 µM (inactive)
GI50 (DU-145): 13.6 µM (inactive)
GI50 (RPMI-8226): 0.297 µM (active)
GI50 (MDA-N): 1.65 µM (inactive)
GI50 (T47D): 0.989 µM (active)
GI50 (SR): 0.186 µM (active)
GI50 (OVCAR-5): 2.94 µM (inactive)
